# What was measured:
# common ragweed = assay: Test D common ragweed; type: in vivo, Ambrosia elatior; settings: Postemergence, 0 to 100 scale
# common groundsel = assay: Test D common groundsel; type: in vivo, Senecio vulgaris; settings: Postemergence, 0 to 100 scale
# itchgrass = assay: Test D itchgrass; type: in vivo, Rottboellia exaltata; settings: Postemergence, 0 to 100 scale
# pitted morningglory = assay: Test D pitted morningglory; type: in vivo, Ipomoea lacunosa; settings: Postemergence, 0 to 100 scale
# purple nutsedge = assay: Test D purple nutsedge; type: in vivo, Cyperus rotundus; settings: Postemergence, 0 to 100 scale; for Purple nutsedge plant response rating: 0 no injury, 100 complete control
# tall mallow = assay: Test D tall mallow; type: in vivo, Malva sylvestris; settings: Postemergence, 0 to 100 scale; for Tall Mallow plant response rating: 0 no injury, 100 complete control
# [1] = Rate 64 g/ha, 0 no injury, 100 complete control
# [2] = Rate 125 g/ha, 0 no injury, 100 complete control
compound,measurement,setting,value
CC(C)N(C(=O)n1oc(=O)n(C2CC2)c1=O)c1ccc(F)cc1F [Compound 299],"Plant response rating, C. ragweed",common ragweed; [1],100
same,"Plant response rating, C. ragweed",common ragweed; [2],50
same,"Plant response rating, C. ragweed",common ragweed; Rate 250 g/ha,100
same,"Plant response rating, C. ragweed",common ragweed; Rate 500 g/ha,100
same,"Plant response rating, Com. groundsel",common groundsel; [1],100
same,"Plant response rating, Com. groundsel",common groundsel; [2],100
same,"Plant response rating, Com. groundsel",common groundsel; Rate 250 g/ha,100
same,"Plant response rating, Com. groundsel",common groundsel; Rate 500 g/ha,100
same,"Plant response rating, Itchgrass",itchgrass; [1],0
same,"Plant response rating, Itchgrass",itchgrass; [2],10
same,"Plant response rating, Itchgrass",itchgrass; Rate 250 g/ha,50
same,"Plant response rating, Itchgrass",itchgrass; Rate 500 g/ha,100
same,"Plant response rating, P. morninglory",pitted morningglory; [1],0
same,"Plant response rating, P. morninglory",pitted morningglory; [2],0
same,"Plant response rating, P. morninglory",pitted morningglory; Rate 250 g/ha,0
same,"Plant response rating, P. morninglory",pitted morningglory; Rate 500 g/ha,0
same,Purple nutsedge plant response rating,purple nutsedge; Rate 64 g/ha,0
same,Purple nutsedge plant response rating,purple nutsedge; Rate 125 g/ha,0
same,"Plant response rating, Purple nutsedge",purple nutsedge; Rate 250 g/ha,0
same,"Plant response rating, Purple nutsedge",purple nutsedge; Rate 500 g/ha,100
same,Tall Mallow plant response rating,tall mallow; Rate 64 g/ha,30
same,Tall Mallow plant response rating,tall mallow; Rate 125 g/ha,90
same,"Plant response rating, Tall Mallow",tall mallow; Rate 250 g/ha,70
same,"Plant response rating, Tall Mallow",tall mallow; Rate 500 g/ha,100

# Reference: patent publication US6737383B1, “Herbicidal oxadiazolidines” (priority 1999, dated 2004)
